ChEMBL document CHEMBL5724914, “Linking interpersonal differences in gut microbiota composition and drug biotransformation activity” (2024)

experiment: (§1) The drug is tested on Z-030 corresponding to mouse gut metagenome with ENA study accession number: PRJEB37062 and ENA sample accession number: ERS12561829 for biotransformation under anaerobic condition. The drug concentrations were measured over 9 timepoints collected between 0 and 24 hours of incubation by liquid-chromatography-coupled mass spectrometry (LC–MS); details: 2 µM
Note: call rule not given here.

Bacterial Biotransformation	Compound
Compound NOT metabolized	Nc1nc(NC2CC2)c2ncn([C@H]3C=C[C@@H](CO)C3)c2n1.Nc1nc(NC2CC2)c2ncn([C@H]3C=C[C@@H](CO)C3)c2n1.O=S(=O)(O)O [ABACAVIR SULFATE]
Compound NOT metabolized	CCN(CC)CCNC(=O)c1ccc(NC(C)=O)cc1 [ACECAINIDE]
Compound NOT metabolized	O=C1CN2Cc3c(ccc(Cl)c3Cl)N=C2N1 [ANAGRELIDE]

Compound	Bacterial Biotransformation
CCN(CC)C(=O)C1(c2ccccc2)CC1CN (stereo not given)	Compound NOT metabolized

experiment: as §1, with “Z-026” for “Z-030”, “to” for “to mouse gut”, “ERS12561825” for “ERS12561829”; details: 2 µM

Bacterial Biotransformation	Compound
Compound NOT metabolized	Nc1nc(NC2CC2)c2ncn([C@H]3C=C[C@@H](CO)C3)c2n1.Nc1nc(NC2CC2)c2ncn([C@H]3C=C[C@@H](CO)C3)c2n1.O=S(=O)(O)O [ABACAVIR SULFATE]
Compound NOT metabolized	CCN(CC)CCNC(=O)c1ccc(NC(C)=O)cc1 [ACECAINIDE]
Compound NOT metabolized	O=C1CN2Cc3c(ccc(Cl)c3Cl)N=C2N1 [ANAGRELIDE]

Compound	Bacterial Biotransformation
CCN(CC)C(=O)C1(c2ccccc2)CC1CN (stereo not given)	Compound NOT metabolized

experiment: as §1, with “Z-020” for “Z-030”, “rabbit” for “mouse”, “ERS12561819” for “ERS12561829”; details: 2 µM

Bacterial Biotransformation	Compound
Compound NOT metabolized	Nc1nc(NC2CC2)c2ncn([C@H]3C=C[C@@H](CO)C3)c2n1.Nc1nc(NC2CC2)c2ncn([C@H]3C=C[C@@H](CO)C3)c2n1.O=S(=O)(O)O [ABACAVIR SULFATE]
Compound NOT metabolized	CCN(CC)CCNC(=O)c1ccc(NC(C)=O)cc1 [ACECAINIDE]
Compound NOT metabolized	O=C1CN2Cc3c(ccc(Cl)c3Cl)N=C2N1 [ANAGRELIDE]

Compound	Bacterial Biotransformation
CCN(CC)C(=O)C1(c2ccccc2)CC1CN (stereo not given)	Compound NOT metabolized

experiment: as §1, with “Z-008” for “Z-030”, “to” for “to mouse gut”, “ERS12561808” for “ERS12561829”; details: 2 µM

Bacterial Biotransformation	Compound
Compound NOT metabolized	Nc1nc(NC2CC2)c2ncn([C@H]3C=C[C@@H](CO)C3)c2n1.Nc1nc(NC2CC2)c2ncn([C@H]3C=C[C@@H](CO)C3)c2n1.O=S(=O)(O)O [ABACAVIR SULFATE]
Compound NOT metabolized	CCN(CC)CCNC(=O)c1ccc(NC(C)=O)cc1 [ACECAINIDE]
Compound NOT metabolized	O=C1CN2Cc3c(ccc(Cl)c3Cl)N=C2N1 [ANAGRELIDE]

Compound	Bacterial Biotransformation
CCN(CC)C(=O)C1(c2ccccc2)CC1CN (stereo not given)	Compound NOT metabolized

experiment: as §1, with “Z-003” for “Z-030”, “pig” for “mouse”, “ERS12561803” for “ERS12561829”; details: 2 µM

Bacterial Biotransformation	Compound
Compound NOT metabolized	Nc1nc(NC2CC2)c2ncn([C@H]3C=C[C@@H](CO)C3)c2n1.Nc1nc(NC2CC2)c2ncn([C@H]3C=C[C@@H](CO)C3)c2n1.O=S(=O)(O)O [ABACAVIR SULFATE]
Compound NOT metabolized	CCN(CC)CCNC(=O)c1ccc(NC(C)=O)cc1 [ACECAINIDE]
Compound NOT metabolized	O=C1CN2Cc3c(ccc(Cl)c3Cl)N=C2N1 [ANAGRELIDE]

Compound	Bacterial Biotransformation
CCN(CC)C(=O)C1(c2ccccc2)CC1CN (stereo not given)	Compound NOT metabolized

experiment: as §1, with “WLS-310” for “Z-030”, “human” for “mouse”, “ERS12561785” for “ERS12561829”; details: 2 µM

Bacterial Biotransformation	Compound
Compound NOT metabolized	Nc1nc(NC2CC2)c2ncn([C@H]3C=C[C@@H](CO)C3)c2n1.Nc1nc(NC2CC2)c2ncn([C@H]3C=C[C@@H](CO)C3)c2n1.O=S(=O)(O)O [ABACAVIR SULFATE]
Compound metabolized	CCN(CC)CCNC(=O)c1ccc(NC(C)=O)cc1 [ACECAINIDE]
Compound metabolized	O=C1CN2Cc3c(ccc(Cl)c3Cl)N=C2N1 [ANAGRELIDE]

Compound	Bacterial Biotransformation
CCN(CC)C(=O)C1(c2ccccc2)CC1CN (stereo not given)	Compound NOT metabolized

experiment: as §1, with “WLS-220” for “Z-030”, “human” for “mouse”, “ERS12561769” for “ERS12561829”; details: 2 µM

Bacterial Biotransformation	Compound
Compound metabolized	Nc1nc(NC2CC2)c2ncn([C@H]3C=C[C@@H](CO)C3)c2n1.Nc1nc(NC2CC2)c2ncn([C@H]3C=C[C@@H](CO)C3)c2n1.O=S(=O)(O)O [ABACAVIR SULFATE]
Compound NOT metabolized	CCN(CC)CCNC(=O)c1ccc(NC(C)=O)cc1 [ACECAINIDE]
Compound metabolized	O=C1CN2Cc3c(ccc(Cl)c3Cl)N=C2N1 [ANAGRELIDE]

Compound	Bacterial Biotransformation
CCN(CC)C(=O)C1(c2ccccc2)CC1CN (stereo not given)	Compound NOT metabolized

experiment: as §1, with “WLS-077” for “Z-030”, “human” for “mouse”, “ERS12561750” for “ERS12561829”; details: 2 µM

Bacterial Biotransformation	Compound
Compound metabolized	Nc1nc(NC2CC2)c2ncn([C@H]3C=C[C@@H](CO)C3)c2n1.Nc1nc(NC2CC2)c2ncn([C@H]3C=C[C@@H](CO)C3)c2n1.O=S(=O)(O)O [ABACAVIR SULFATE]
Compound NOT metabolized	CCN(CC)CCNC(=O)c1ccc(NC(C)=O)cc1 [ACECAINIDE]
Compound NOT metabolized	O=C1CN2Cc3c(ccc(Cl)c3Cl)N=C2N1 [ANAGRELIDE]

Compound	Bacterial Biotransformation
CCN(CC)C(=O)C1(c2ccccc2)CC1CN (stereo not given)	Compound NOT metabolized

experiment: as §1, with “WLS-007” for “Z-030”, “human” for “mouse”, “ERS12561742” for “ERS12561829”; details: 2 µM

Bacterial Biotransformation	Compound
Compound NOT metabolized	Nc1nc(NC2CC2)c2ncn([C@H]3C=C[C@@H](CO)C3)c2n1.Nc1nc(NC2CC2)c2ncn([C@H]3C=C[C@@H](CO)C3)c2n1.O=S(=O)(O)O [ABACAVIR SULFATE]
Compound NOT metabolized	CCN(CC)CCNC(=O)c1ccc(NC(C)=O)cc1 [ACECAINIDE]
Compound metabolized	O=C1CN2Cc3c(ccc(Cl)c3Cl)N=C2N1 [ANAGRELIDE]

Compound	Bacterial Biotransformation
CCN(CC)C(=O)C1(c2ccccc2)CC1CN (stereo not given)	Compound NOT metabolized

details: human gut metagenome, 24 h, 2 µM

Bacterial Biotransformation	Compound
Compound metabolized	Nc1nc(NC2CC2)c2ncn([C@H]3C=C[C@@H](CO)C3)c2n1.Nc1nc(NC2CC2)c2ncn([C@H]3C=C[C@@H](CO)C3)c2n1.O=S(=O)(O)O [ABACAVIR SULFATE]
Compound NOT metabolized	CCN(CC)CCNC(=O)c1ccc(NC(C)=O)cc1 [ACECAINIDE]
Compound metabolized	O=C1CN2Cc3c(ccc(Cl)c3Cl)N=C2N1 [ANAGRELIDE]

Compound	Bacterial Biotransformation
CCN(CC)C(=O)C1(c2ccccc2)CC1CN (stereo not given)	Compound NOT metabolized

details: human gut metagenome, 24 h, 2 µM; remark: another data set of the same source

Bacterial Biotransformation	Compound
Compound metabolized	Nc1nc(NC2CC2)c2ncn([C@H]3C=C[C@@H](CO)C3)c2n1.Nc1nc(NC2CC2)c2ncn([C@H]3C=C[C@@H](CO)C3)c2n1.O=S(=O)(O)O [ABACAVIR SULFATE]
Compound NOT metabolized	CCN(CC)CCNC(=O)c1ccc(NC(C)=O)cc1 [ACECAINIDE]
Compound metabolized	O=C1CN2Cc3c(ccc(Cl)c3Cl)N=C2N1 [ANAGRELIDE]

Compound	Bacterial Biotransformation
CCN(CC)C(=O)C1(c2ccccc2)CC1CN (stereo not given)	Compound NOT metabolized

details: human gut metagenome, 24 h, 2 µM; remark: another data set of the same source

Bacterial Biotransformation	Compound
Compound metabolized	Nc1nc(NC2CC2)c2ncn([C@H]3C=C[C@@H](CO)C3)c2n1.Nc1nc(NC2CC2)c2ncn([C@H]3C=C[C@@H](CO)C3)c2n1.O=S(=O)(O)O [ABACAVIR SULFATE]
Compound NOT metabolized	CCN(CC)CCNC(=O)c1ccc(NC(C)=O)cc1 [ACECAINIDE]
Compound NOT metabolized	O=C1CN2Cc3c(ccc(Cl)c3Cl)N=C2N1 [ANAGRELIDE]

Compound	Bacterial Biotransformation
CCN(CC)C(=O)C1(c2ccccc2)CC1CN (stereo not given)	Compound NOT metabolized

details: human gut metagenome, 24 h, 2 µM; remark: another data set of the same source

Bacterial Biotransformation	Compound
Compound metabolized	Nc1nc(NC2CC2)c2ncn([C@H]3C=C[C@@H](CO)C3)c2n1.Nc1nc(NC2CC2)c2ncn([C@H]3C=C[C@@H](CO)C3)c2n1.O=S(=O)(O)O [ABACAVIR SULFATE]
Compound metabolized	CCN(CC)CCNC(=O)c1ccc(NC(C)=O)cc1 [ACECAINIDE]
Compound NOT metabolized	O=C1CN2Cc3c(ccc(Cl)c3Cl)N=C2N1 [ANAGRELIDE]

Compound	Bacterial Biotransformation
CCN(CC)C(=O)C1(c2ccccc2)CC1CN (stereo not given)	Compound NOT metabolized

details: human gut metagenome, 24 h, 2 µM; remark: another data set of the same source

Bacterial Biotransformation	Compound
Compound metabolized	Nc1nc(NC2CC2)c2ncn([C@H]3C=C[C@@H](CO)C3)c2n1.Nc1nc(NC2CC2)c2ncn([C@H]3C=C[C@@H](CO)C3)c2n1.O=S(=O)(O)O [ABACAVIR SULFATE]
Compound NOT metabolized	CCN(CC)CCNC(=O)c1ccc(NC(C)=O)cc1 [ACECAINIDE]
Compound NOT metabolized	O=C1CN2Cc3c(ccc(Cl)c3Cl)N=C2N1 [ANAGRELIDE]

Compound	Bacterial Biotransformation
CCN(CC)C(=O)C1(c2ccccc2)CC1CN (stereo not given)	Compound NOT metabolized

details: human gut metagenome, 24 h, 2 µM; remark: another data set of the same source

Bacterial Biotransformation	Compound
Compound metabolized	Nc1nc(NC2CC2)c2ncn([C@H]3C=C[C@@H](CO)C3)c2n1.Nc1nc(NC2CC2)c2ncn([C@H]3C=C[C@@H](CO)C3)c2n1.O=S(=O)(O)O [ABACAVIR SULFATE]
Compound metabolized	CCN(CC)CCNC(=O)c1ccc(NC(C)=O)cc1 [ACECAINIDE]
Compound metabolized	O=C1CN2Cc3c(ccc(Cl)c3Cl)N=C2N1 [ANAGRELIDE]

Compound	Bacterial Biotransformation
CCN(CC)C(=O)C1(c2ccccc2)CC1CN (stereo not given)	Compound NOT metabolized

details: human gut metagenome, 24 h, 2 µM; remark: another data set of the same source

Bacterial Biotransformation	Compound
Compound metabolized	Nc1nc(NC2CC2)c2ncn([C@H]3C=C[C@@H](CO)C3)c2n1.Nc1nc(NC2CC2)c2ncn([C@H]3C=C[C@@H](CO)C3)c2n1.O=S(=O)(O)O [ABACAVIR SULFATE]
Compound metabolized	CCN(CC)CCNC(=O)c1ccc(NC(C)=O)cc1 [ACECAINIDE]
Compound metabolized	O=C1CN2Cc3c(ccc(Cl)c3Cl)N=C2N1 [ANAGRELIDE]

Compound	Bacterial Biotransformation
CCN(CC)C(=O)C1(c2ccccc2)CC1CN (stereo not given)	Compound NOT metabolized

details: human gut metagenome, 24 h, 2 µM; remark: another data set of the same source

Bacterial Biotransformation	Compound
Compound metabolized	Nc1nc(NC2CC2)c2ncn([C@H]3C=C[C@@H](CO)C3)c2n1.Nc1nc(NC2CC2)c2ncn([C@H]3C=C[C@@H](CO)C3)c2n1.O=S(=O)(O)O [ABACAVIR SULFATE]
Compound NOT metabolized	CCN(CC)CCNC(=O)c1ccc(NC(C)=O)cc1 [ACECAINIDE]
Compound NOT metabolized	O=C1CN2Cc3c(ccc(Cl)c3Cl)N=C2N1 [ANAGRELIDE]

Compound	Bacterial Biotransformation
CCN(CC)C(=O)C1(c2ccccc2)CC1CN (stereo not given)	Compound NOT metabolized

details: human gut metagenome, 24 h, 2 µM; remark: another data set of the same source

Bacterial Biotransformation	Compound
Compound metabolized	Nc1nc(NC2CC2)c2ncn([C@H]3C=C[C@@H](CO)C3)c2n1.Nc1nc(NC2CC2)c2ncn([C@H]3C=C[C@@H](CO)C3)c2n1.O=S(=O)(O)O [ABACAVIR SULFATE]
Compound NOT metabolized	CCN(CC)CCNC(=O)c1ccc(NC(C)=O)cc1 [ACECAINIDE]
Compound metabolized	O=C1CN2Cc3c(ccc(Cl)c3Cl)N=C2N1 [ANAGRELIDE]

Compound	Bacterial Biotransformation
CCN(CC)C(=O)C1(c2ccccc2)CC1CN (stereo not given)	Compound NOT metabolized

details: human gut metagenome, 24 h, 2 µM; remark: another data set of the same source

Bacterial Biotransformation	Compound
Compound metabolized	Nc1nc(NC2CC2)c2ncn([C@H]3C=C[C@@H](CO)C3)c2n1.Nc1nc(NC2CC2)c2ncn([C@H]3C=C[C@@H](CO)C3)c2n1.O=S(=O)(O)O [ABACAVIR SULFATE]
Compound metabolized	CCN(CC)CCNC(=O)c1ccc(NC(C)=O)cc1 [ACECAINIDE]
Compound metabolized	O=C1CN2Cc3c(ccc(Cl)c3Cl)N=C2N1 [ANAGRELIDE]

Compound	Bacterial Biotransformation
CCN(CC)C(=O)C1(c2ccccc2)CC1CN (stereo not given)	Compound NOT metabolized

details: human gut metagenome, 24 h, 2 µM; remark: another data set of the same source

Bacterial Biotransformation	Compound
Compound metabolized	Nc1nc(NC2CC2)c2ncn([C@H]3C=C[C@@H](CO)C3)c2n1.Nc1nc(NC2CC2)c2ncn([C@H]3C=C[C@@H](CO)C3)c2n1.O=S(=O)(O)O [ABACAVIR SULFATE]
Compound NOT metabolized	CCN(CC)CCNC(=O)c1ccc(NC(C)=O)cc1 [ACECAINIDE]
Compound metabolized	O=C1CN2Cc3c(ccc(Cl)c3Cl)N=C2N1 [ANAGRELIDE]

Compound	Bacterial Biotransformation
CCN(CC)C(=O)C1(c2ccccc2)CC1CN (stereo not given)	Compound NOT metabolized
